“And” between values parts separate entries of the source, which are not always exact repeats. Equal values may be shown once. Read-outs that look alike come from different tables or passages of the source.
Biological target: recombinant active human PAI-1 (Homo sapiens (Human), UniProt P05121)
Test: Fluorometric PAI-1/uPA IC50 plate assay at pH 7.4
Assay type: biochemical
Method: To determine the efficacy of various synthesized compounds as PAI-1 inhibitors, a fluorometric plate assay was carried out to measure the half maximal inhibitory concentration (IC50) of these compounds on recombinant active human PAI-1 in vitro. An IC50 is a measure of the effectiveness of a compound in inhibiting biological or biochemical function. Stated another way, IC50 represents the concentration of a drug that is required for 50% inhibition in vitro.
PAI-1 inhibitor compounds were dissolved in DMSO to a final concentration of (10-50 mM), depending upon solubility. Compounds were then diluted in physiologic buffer (40 mM HEPES, 100 mM NaCl, 0.05% Tween-20, pH7.4) containing 10% DMSO and a dilution series (from 0 to 1000 uM depending on solubility) was prepared. 80 μL of compound was added per well to a 96-well black, opaque microplate in duplicate. 10 μL of 20 nM Recombinant active human PAI-1 (Molecular Innovations) in physiologic buffer (40 mM HEPES, 100 mM NaCl, 0.05% Tween-20, 10% DMSO, pH 7.4), or […] physiologic buffer with 10% human plasma, was added and the mixture was agitated for 15 minutes at room temperature. 10 μL of 25 nM uPA (Rheotromb®) was added to each reaction well and the plate was agitated for an additional 30 minutes at room temperature. Tripeptide aminomethylcoumarin Gly-Gly-Arg-AMC (Calbiochem) fluorogenic substrate (100 μL of 100 μM) was then added and residual uPA activity was determined based upon cleavage of this substrate. The rate of AMC release by uPA (fluorescence) was measured at an excitation wavelength of 370 nm and an emission wavelength of 440 nm. Controls included PAI-1 and uPA in the absence of compound and uPA alone. Percent PAI-1 inhibition was calculated using the following formula: [(uPA alone-uPA/PAI-1+ compound)/(uPA alone-PAI-1/uPA)]*100%. The IC50 was calculated using Graphit (IC50 0-100%).

[1] = physiologic buffer (40 mM HEPES, 100 mM NaCl, 0.05% Tween-20, 10% DMSO), read-out: PAI-1/uPA IC50 in buffer
[2] = physiologic buffer with 1.5% BSA (15 mg/mL), read-out: PAI-1/uPA IC50 in 1.5% BSA buffer
[3] = physiologic buffer with 10% human plasma, read-out: PAI-1/uPA IC50 in 10% plasma buffer

Sequence of recombinant active human PAI-1 (P05121 24-402): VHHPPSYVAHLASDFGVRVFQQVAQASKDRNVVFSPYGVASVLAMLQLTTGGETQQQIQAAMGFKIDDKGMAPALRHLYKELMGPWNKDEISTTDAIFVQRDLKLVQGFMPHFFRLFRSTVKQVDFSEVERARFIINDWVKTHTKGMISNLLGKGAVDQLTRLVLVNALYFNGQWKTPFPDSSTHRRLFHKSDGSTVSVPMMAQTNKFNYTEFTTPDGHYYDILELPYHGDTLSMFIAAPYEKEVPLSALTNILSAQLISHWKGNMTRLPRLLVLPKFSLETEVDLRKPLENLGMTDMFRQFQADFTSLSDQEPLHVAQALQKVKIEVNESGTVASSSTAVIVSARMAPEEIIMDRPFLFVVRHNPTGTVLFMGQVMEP

Structure (SMILES)	IC50 [1]	IC50 [2]	IC50 [3]
CCCCCNC(=O)C(=O)NN [C241]	1930 µM	–	–
COC(=O)CCC(=O)NCc1cccc(C(F)(F)F)c1 [C288]	2910 µM	1060 µM	752 µM
Cc1cc(C(=O)NCc2ccc(Cl)c(C(F)(F)F)c2)no1 [C286]	580 µM	–	–
NNC(=O)C(=O)NCc1cccc(Cl)c1 [C266]	568 µM and 549 µM	126 µM	219 µM
NNC(=O)CCC(=O)NCc1ccc(Cl)c(C(F)(F)F)c1 [C278]	640 µM and 642 µM	118 µM and 130 µM	142 µM
CCCCCCNC(=O)C(=O)NN [C240]	3770 µM and 3910 µM	2220 µM and 1970 µM	1210 µM
CCOC(=O)C(=O)NCc1cccc(Cl)c1 [C265]	4020 µM	–	–
NNC(=O)C(=O)NCc1cccc(C(F)(F)F)c1 [C297]	136 µM	111 µM	87 µM
O=C1Cc2cc(-c3csc(-c4ccc(O)c(O)c4)n3)ccc2N1 [C228]	14.8 µM	–	–
NNC(=O)C(=O)NCc1ccc(F)cc1 [C248]	1190 µM and 1310 µM	652 µM and 646 µM	478 µM
NNC(=O)CCC(=O)NCc1ccc(F)c(C(F)(F)F)c1 [C287]	1190 µM	363 µM	304 µM
O=C1Cc2cc(S(=O)(=O)NCCc3ccccc3)ccc2N1 [C229, 2-oxo-N-phenethylindoline-5-sulfonamide]	1290 µM	–	–
NNC(=O)C(=O)NCc1ccccc1F [C263]	2840 µM	1680 µM	1360 µM
COc1cccc(CNC(=O)C(=O)NN)c1 [C295]	1340 µM	776 µM	736 µM
Cc1ccc(CNC(=O)C(=O)NN)cc1F [C305]	224 µM	81 µM	62 µM
O=C(NO)C(=O)NCc1ccc(Cl)c(C(F)(F)F)c1 [C280]	207 µM and 203 µM	166 µM and 159 µM	168 µM
NNC(=O)C(=O)NCc1ccc(F)c(C(F)(F)F)c1 [C261]	102 µM and 103 µM	68 µM and 86 µM	69 µM
O=C(O)C(=O)NCc1ccc(Cl)c(C(F)(F)F)c1 [C309, 2-((4-chloro-3-(trifluoromethyl)benzyl)amino)-2-oxoacetic acid]	1200 µM	–	–
Cc1cc(Cl)ccc1CNC(=O)C(=O)NO [C300]	5490 µM	–	–
COC(=O)CCC(=O)NCc1ccc(F)c(C(F)(F)F)c1 [C276]	1440 µM	428 µM	476 µM
NNC(=O)C(=O)NCc1ccc(Br)cc1 [C260]	147 µM and 187 µM	–	525 µM
COc1ccc(CNC(=O)C(=O)NN)c(OC)c1 [C281]	2290 µM	–	–

Structure (SMILES)	IC50 [1]	IC50 [2]	IC50 [3]
O=C(NCc1ccc(Cl)c(C(F)(F)F)c1)c1n[nH]c(=O)o1 [C285, N-(4-chloro-3-(trifluoromethyl)benzyl)-5-oxo-4,5-dihydro-1,3,4-oxadiazole-2-carboxamide]	422 µM and 388 µM	265 µM	306 µM
O=C1Cc2cc(C(=O)CNCCNCC(=O)c3ccc4c(c3)CC(=O)N4)ccc2N1 [C225, 5,5′-(2,2′-(ethane-1,2-diylbis(azanediyl))bis(acetyl))bis(indolin-2-one)]	163 µM	–	–
NNC(=O)C(=O)NCc1cc(F)c(F)c(F)c1 [C304]	162 µM	90 µM	74 µM
COc1ccc(CCNC(=O)C(=O)NN)cc1OC [C246]	2560 µM	–	–
CCOC(=O)C(=O)NCc1cccc(C(F)(F)F)c1 [C267]	3790 µM	–	–
COC(=O)CCC(=O)NCc1ccc(Cl)c(C(F)(F)F)c1 [C277]	751 µM and 719 µM	165 µM and 158 µM	148 µM and 142 µM
NNC(=O)C(=O)NCc1ccc(C(F)(F)F)cc1 [C296]	112 µM	69 µM	64 µM
O=C(NO)NCc1ccc(Cl)c(C(F)(F)F)c1 [C284, 1-(4-chloro-3-(trifluoromethyl)benzyl)-3-hydroxyurea]	2480 µM	–	–
Cc1cc(Cl)ccc1CNC(=O)c1n[nH]c(=O)o1 [C299]	238 µM	739 µM	628 µM
NNC(=O)C(=O)NCc1cccc(OC(F)(F)F)c1 [C268]	135 µM and 134 µM	65 µM	77 µM
NNC(=O)C(=O)NCc1cccc(F)c1 [C264]	2120 µM	1180 µM	1250 µM
NNC(=O)C(=O)NCc1cccc(Cl)c1Cl [C301]	173 µM	128 µM	106 µM
NNC(=O)C(=O)NCc1ccc(Cl)c(C(F)(F)F)c1 [C251]	68.6 µM and 76 µM	110 µM and 123 µM	108 µM
CC(C)=NNC(=O)C(=O)NCc1cc(F)cc(F)c1 [C313]	1200 µM	532 µM	490 µM
Cc1ccc(CNC(=O)c2n[nH]c(=O)o2)cc1F [C306]	1160 µM	403 µM	405 µM
Cc1cc(Cl)ccc1CNC(=O)C(=O)NN [C282]	225 µM and 219 µM	163 µM and 154 µM	121 µM
NNC(=O)C(=O)NCc1ccc(Cl)cc1F [C307]	465 µM	99 µM	101 µM
NNC(=O)CCC(=O)NCc1cccc(C(F)(F)F)c1 [C289]	2730 µM	1100 µM	733 µM
CCOC(=O)C(=O)NCc1ccc(Cl)c(C(F)(F)F)c1 [C256, ethyl 2-((4-chloro-3-(trifluoromethyl)benzyl)amino)-2-oxoacetate]	1040 µM and 1350 µM	204 µM and 235 µM	214 µM
NNC(=O)C(=O)NCc1ccc(OC(F)(F)F)cc1 [C255]	2060 µM and 1780 µM	221 µM and 292 µM	279 µM
CCOC(=O)C(=O)NCc1ccc(Br)cc1 [C259]	2890 µM and 3140 µM	625 µM and 760 µM	526 µM
Cc1cc(CNC(=O)C(=O)NN)ccc1F [C262]	170 µM and 187 µM	63 µM and 84 µM	86 µM

Second part, the molecule after the results:

IC50 [1]	IC50 [2]	IC50 [3]	Structure (SMILES)
533 µM	353 µM	229 µM	Cc1ccc(CNC(=O)C(=O)NN)cc1 [C362]
4320 µM	–	–	COc1cc(CNC(=O)C(=O)NN)cc(OC)c1 [C322]
888 µM	309 µM	293 µM	O=C(Cc1ccc(O)c(O)c1)NCc1ccc(Cl)c(C(F)(F)F)c1 [C347]
3370 µM	2080 µM	974 µM	O=C(CCc1ccc(O)c(O)c1)NCc1ccc(Cl)cc1 [C359]
1100 µM	1240 µM	544 µM	O=C(CCc1ccc(O)c(O)c1)NCc1cc(F)c(F)c(F)c1 [C356]
282 µM	247 µM	303 µM	NNC(=O)C(=O)NCc1cc(C(F)(F)F)cc(C(F)(F)F)c1 [C339]
232 µM	2000 µM	851 µM	O=C(NCc1ccc(Cl)cc1)c1ccc(O)c(O)c1 [C361]
199 µM	751 µM	309 µM	O=C(NCc1ccc(C(F)(F)F)cc1)c1ccc(O)c(O)c1 [C363]
1500 µM	1230 µM	619 µM	Cc1cc(CNC(=O)CCc2ccc(O)c(O)c2)ccc1F [C358]
1000 µM	830 µM	866 µM	O=C(CCc1ccc(O)c(O)c1)NCc1cccc(C(F)(F)F)c1 [C344]
900 µM	1460 µM	1870 µM	Cc1ccc(F)cc1CNC(=O)C(=O)NN [C341]
353 µM	–	–	O=C(/C=C/c1ccc(O)c(O)c1)NCc1ccc(Cl)c(C(F)(F)F)c1 [C346]
475 µM	898 µM	533 µM	O=C(NCc1cccc(C(F)(F)F)c1)c1ccc(O)c(O)c1 [C364]
1370 µM	1230 µM	567 µM	O=C(CCc1ccc(O)c(O)c1)NCc1cccc(OC(F)(F)F)c1 [C357]
164 µM	1670 µM	771 µM	O=C(NCc1ccc(Br)cc1)c1ccc(O)c(O)c1 [C360]
337 µM	249 µM	272 µM	NNC(=O)C(=O)NCc1cc(F)cc(F)c1 [C340]
1470 µM	673 µM	539 µM	O=C(CCc1ccc(O)c(O)c1)NCc1ccc(C(F)(F)F)cc1 [C345]
99 µM	454 µM	240 µM	O=C(NCc1ccc(Cl)c(C(F)(F)F)c1)c1ccc(O)c(O)c1 [C348]
5470 µM	892 µM	851 µM	N#Cc1ccc(CNC(=O)C(=O)NN)cc1 [C336]
329 µM	513 µM	693 µM	CONC(=O)C(=O)NCc1ccc(Cl)c(C(F)(F)F)c1 [C320, N-(4-chloro-3-(trifluoromethyl)benzyl)-N′-methoxyoxalamide]

Reference: patent US9718760B2, “Plasminogen activator inhibitor-1 inhibitors and methods of use thereof” (THE REGENTS OF THE UNIVERSITY OF MICHIGAN, priority 2012, dated 2017)
